Assay: xn = mol fraction of the nth substance listed

CCC(=O)CC + CCCCN
303.15 K, 101.33 kPa
Conditions	viscosity [mPa·s]
x2 = 0.1145	0.519
x2 = 0.2006	0.59
x2 = 0.3211	0.678
x2 = 0.417	0.735
x2 = 0.5421	0.784
x2 = 0.7264	0.752
x2 = 0.8234	0.681
x2 = 0.8922	0.62

CCC(=O)CC + CCCCN(CCCC)CCCC
viscosity [mPa·s], 101 kPa
Conditions	298.15 K	303.15 K	308.15 K
x2 = 0.05	0.468	0.442	0.419
x2 = 0.1004	0.498	0.47	0.444
x2 = 0.1502	0.533	0.502	0.473
x2 = 0.2006	0.566	0.531	0.502
x2 = 0.25	0.6	0.563	0.529
x2 = 0.2996	0.636	0.595	0.559
x2 = 0.3995	0.71	0.662	0.621
x2 = 0.4998	0.79	0.734	0.684
x2 = 0.6004	0.874	0.809	0.752
x2 = 0.7005	0.965	0.889	0.824
x2 = 0.7998	1.065	0.978	0.901
x2 = 0.8462	1.109	1.016	0.934
x2 = 0.8953	1.16	1.06	0.976
x2 = 0.9489	1.212	1.106	1.017

C1CCCC1 + CCCCO
101 kPa
Conditions	viscosity [mPa·s]
298.15 K, x1 = 0.0281	2.401
298.15 K, x1 = 0.0729	2.23
298.15 K, x1 = 0.1366	1.972
298.15 K, x1 = 0.2131	1.703
298.15 K, x1 = 0.268	1.533
298.15 K, x1 = 0.2928	1.448
298.15 K, x1 = 0.3216	1.358
298.15 K, x1 = 0.3809	1.205
298.15 K, x1 = 0.4426	1.035
298.15 K, x1 = 0.5285	0.8835
298.15 K, x1 = 0.5981	0.7551
298.15 K, x1 = 0.6858	0.6361
298.15 K, x1 = 0.7617	0.5622
298.15 K, x1 = 0.7948	0.5316
298.15 K, x1 = 0.8094	0.5193
298.15 K, x1 = 0.8797	0.4629
308.15 K, x1 = 0.004	1.958
308.15 K, x1 = 0.1227	1.614
308.15 K, x1 = 0.1427	1.583
308.15 K, x1 = 0.1774	1.556
308.15 K, x1 = 0.2185	1.381
308.15 K, x1 = 0.2585	1.358
308.15 K, x1 = 0.3367	1.164
308.15 K, x1 = 0.421	1.009
308.15 K, x1 = 0.494	0.8822
308.15 K, x1 = 0.5979	0.6995
308.15 K, x1 = 0.7214	0.5435
308.15 K, x1 = 0.8382	0.4404
308.15 K, x1 = 0.9315	0.3813
308.15 K, x1 = 0.9658	0.3641
308.15 K, x1 = 0.9781	0.3599

CCC(=O)CC + CCCCOC(C)=O
viscosity [mPa·s], 101 kPa
Conditions	x2 = 0.0808	x2 = 0.1652	x2 = 0.2542	x2 = 0.349	x2 = 0.4451	x2 = 0.5459	x2 = 0.65	x2 = 0.7613	x2 = 0.8771
298.15 K	0.478	0.5	0.523	0.543	0.558	0.573	0.59	0.614	0.645
303.15 K	0.445	0.464	0.485	0.5	0.513	0.526	0.541	0.562	0.589
308.15 K	0.419	0.437	0.455	0.471	0.483	0.495	0.509	0.528	0.554
313.15 K	0.395	0.411	0.429	0.441	0.452	0.461	0.474	0.491	0.514

Reference: the CheMixHub viscosity set
